Measured values taken from patent US10165775B2, “Pesticidal compositions and processes related thereto” (Dow AgroSciences LLC, priority 2011, dated 2019).

Legend:
[1] = tested on: Green Peach Aphid (GPA) (Myrzus persicae) (MYZUPE); test: Bioassay on green peach aphid (GPA), foliar spray on cabbage seedlings; assay type: in vivo; conditions: Myzus persicae, 72 h, 200 ppm foliar spray, graded after three days, Abbott corrected % control, read-out: MYZUPE % Ctrl @ 200 ppm
Method: Certain molecules disclosed in this document were tested against GPA using procedures described in the following example. In the reporting of the results, “Table 3: GPA (MYZUPE) and sweetpotato whitefly-crawler (BEMITA) Rating Table” was used (See Table Section).
Cabbage seedlings grown in 3-inch pots, with 2-3 small (3-5 cm) true leaves, were used as test substrate. The seedlings were infested with 20-50 GPA (wingless adult and nymph stages) one day prior to chemical application. Four pots with individual seedlings were used for each treatment. Test compounds (2 mg) were dissolved in 2 mL of acetone/methanol (1:1) solvent, forming stock solutions of 1000 ppm test compound. The stock solutions were diluted 5× with 0.025% Tween 20 in H2O to obtain the solution at 200 ppm test compound. A hand-held aspirator-type sprayer was used for spraying a solution to both sides of […] leaves until runoff. Reference plants (solvent check) were sprayed with the diluent only containing 20% by volume of acetone/methanol (1:1) solvent. Treated plants were held in a holding room for three days at approximately 25° C. and ambient relative humidity (RH) prior to grading. Evaluation was conducted by counting the number of live aphids per plant under a microscope. Percent Control was measured by using Abbott's correction formula (W. S. Abbott. “A Method of Computing the Effectiveness of an Insecticide” J. Econ. Entomol. 18 (1925), pp. 265-267) as follows. Corrected % Control=100*(X−Y)/X • where • X=No. of live aphids on solvent check plants and • Y=No. of live aphids on treated plants
Biological Data for GPA (MYZUPE) and sweetpotato whitefly-crawler (BEMITA)” (See Table Section).

[2] = tested on: Sweetpotato whitefly-crawler (Bemisia tabaci) (BEMITA); test: Insecticidal test for sweetpotato whitefly-crawler in foliar spray assay on cotton plants; assay type: in vivo; conditions: 200 ppm foliar spray, graded after 8-9 days, Abbott corrected % control, read-out: BEMITA % Ctrl @ 200 ppm
Method: Cotton plants grown in 3-inch pots, with 1 small (3-5 cm) true leaf, were used as test substrate. The plants were placed in a room with whitefly adults. Adults were allowed to deposit eggs for 2-3 days. After a 2-3 day egg-laying period, plants were taken from the adult whitefly room. Adults were blown off leaves using a hand-held Devilbiss sprayer (23 psi). Plants with egg infestation (100-300 eggs per plant) were placed in a holding room for 5-6 days at 82° F. and 50% RH for egg hatch and crawler stage to develop. Four cotton plants were used for each treatment. Compounds (2 mg) were dissolved in 1 mL of acetone solvent, forming stock solutions of 2000 ppm. The stock solutions were diluted 10× with 0.025% Tween 20 in H2O to obtain a test solution at 200 ppm. A hand-held Devilbiss sprayer was used for spraying a solution to both sides of cotton leaf until runoff. Reference plants (solvent check) were sprayed with the diluent only. Treated plants were held in a holding room for 8-9 days at approximately 82° F. and 50% RH prior to grading. Evaluation was conducted by counting the number of live nymphs per plant under a microscope. Insecticidal activity was measured by using Abbott's correction formula and presented in “Table 4. Biological Data for GPA (MYZUPE) and sweetpotato whitefly-crawler (BEMITA)” (see column “BEMITA”): Corrected % Control=100*(X−Y)/X • where X=No. of live nymphs on solvent check plants • Y=No. of live nymphs on treated plants Pesticidally Acceptable Acid Addition Salts, Salt Derivatives, Solvates, Ester Derivatives, Polymorphs, Isotopes and Radionuclides

Row | SMILES | pest or weed control at 200 ppm [1] [%] | pest or weed control at 200 ppm [2] [%] | melting point [°C]
1 | C#CCN(C(=O)C(C)C)c1cn(-c2cncc(F)c2)nc1C [Compound 603] | 80 to 100 | 80 to 100 | 99 to 100
2 | C#CCN(C(=O)C(C)CSC)c1cn(-c2cccnc2)nc1Cl (stereo not drawn) [Compound 608] | 80 to 100 | 80 to 100 | –
3 | C#CCN(C(=O)CN(C)S(C)(=O)=O)c1cn(-c2cccnc2)nc1Cl [Compound 623, N-(3-chloro-1-(pyridin-3-yl)-1H-pyrazol-4-yl)-2-(N-methylmethylsulfonamido)-N-(prop-2-yn-1-yl)acetamide] | 80 to 100 | 80 to 100 | –
4 | C#CCN(C(=O)CCC(F)(F)F)c1cn(-c2cccnc2)nc1C [Compound 597] | 80 to 100 | 0 to 80 | –
5 | CC(C)C(=O)Nc1cn(-c2cncc(F)c2)nc1CCl [Compound 561, N-(3-(chloromethyl)-1-(5-fluoropyridin-3-yl)-1H-pyrazol-4-yl)isobutyramide] | – | – | 172 to 177
6 | C#CCN(C(=O)CCC(F)(F)F)c1cn(-c2cncc(F)c2)nc1C [Compound 604] | 80 to 100 | 80 to 100 | –
7 | C#CCN(C(=O)C(C)SC)c1cn(-c2cccnc2)nc1Cl (stereo not drawn) [Compound 611, N-(3-chloro-1-(pyridin-3-yl)-1H-pyrazol-4-yl)-2-(methylthio)-N-(prop-2-yn-1-yl)propanamide] | 80 to 100 | 80 to 100 | –
8 | Cc1nn(-c2cncc(F)c2)cc1NC(=O)OC(C)(C)C [Compound 111, tert-butyl 1-(5-fluoropyridin-3-yl)-3-methyl-1H-pyrazol-4-ylcarbamate] | – | – | 131.5 to 133
9 | C#CCN(C(=O)CSC)c1cn(-c2cccnc2)nc1Cl [Compound 612] | 80 to 100 | 80 to 100 | 65 to 68
10 | CSCC(C)(C)C(=O)N(C)c1cc(-c2cccnc2)nn1C [Compound 3] | – | – | 190 to 193
11 | C#CCN(C(=O)CS(C)(=O)=O)c1cn(-c2cccnc2)nc1Cl [Compound 621] | 80 to 100 | 80 to 100 | –
12 | C#CCN(C(=O)OC(C)(C)C)c1cn(-c2cncc(F)c2)nc1C [Compound 601, tert-butyl 1-(5-fluoropyridin-3-yl)-3-methyl-1H-pyrazol-4-yl(prop-2-ynyl)carbamate] | 80 to 100 | 80 to 100 | 81 to 82
13 | C#CCN(C(=O)CC(SC)C(F)(F)F)c1cn(-c2cccnc2)nc1Cl (stereo not drawn) [Compound 613, N-(3-chloro-1-(pyridin-3-yl)-1H-pyrazol-4-yl)-4,4,4-trifluoro-3-(methylthio)-N-(prop-2-yn-1-yl)butanamide] | 80 to 100 | 80 to 100 | –
14 | C#CCN(C(=O)OC(C)(C)C)c1cn(-c2cccnc2)nc1C [Compound 596] | 80 to 100 | 80 to 100 | 73 to 75
15 | C#CCN(C(=O)OC(C)(C)C)c1cn(-c2cccnc2)nc1Cl [Compound 606, tert-butyl (3-chloro-1-(pyridin-3-yl)-1H-pyrazol-4-yl)(prop-2-yn-1-yl)carbamate] | 80 to 100 | 80 to 100 | –
16 | C#CCN(C(=O)C(C)C)c1cn(-c2cccnc2)nc1C [Compound 600] | 80 to 100 | 0 to 80 | 89 to 90
17 | C#CCN(C(=O)CCSC(c1ccccc1)(c1ccccc1)c1ccccc1)c1cn(-c2cccnc2)nc1Cl [Compound 624] | – | – | 68 to 70
18 | CC(C)C(=O)Nc1cn(-c2cncc(F)c2)nc1CO [Compound 435, N-(1-(5-fluoropyridin-3-yl)-3-(hydroxymethyl)-1H-pyrazol-4-yl)isobutyramide] | – | – | 144 to 146

Row | SMILES | pest or weed control at 200 ppm [1] [%] | pest or weed control at 200 ppm [2] [%] | melting point [°C]
19 | CCN(C(=O)CC(OC)(C(F)(F)F)C(F)(F)F)c1cn(-c2cccnc2)nc1C [Compound 276, N-ethyl-4,4,4-trifluoro-3-methoxy-N-(3-methyl-1-(pyridin-3-yl)-1H-pyrazol-4-yl)-3-(trifluoromethyl)butanamide] | – | – | 83 to 86
20 | C#CCN(C(=O)CCC(F)(F)C(F)(F)F)c1cn(-c2cccnc2)nc1Cl [Compound 615] | 0 to 80 | 80 to 100 | –
21 | C#CCN(C(=O)CCSCCC(F)(F)F)c1cn(-c2cccnc2)nc1Cl [Compound 626] | 80 to 100 | 80 to 100 | –
22 | C#CCN(C(=O)C(C)CSC)c1cn(-c2cccnc2)nc1C (stereo not drawn) [Compound 599] | 80 to 100 | 0 to 80 | –
23 | C#CCN(C(=O)CCC(F)(F)F)c1cn(-c2cccnc2)nc1Cl [Compound 609] | 80 to 100 | 80 to 100 | –
24 | C#CCN(C(=O)CCSCCC(F)(F)F)c1cn(-c2cccnc2)nc1C [Compound 627, N-(3-methyl-1-(pyridin-3-yl)-1H-pyrazol-4-yl)-N-(prop-2-yn-1-yl)-3-((3,3,3-trifluoropropyl)thio)propanamide] | 80 to 100 | 80 to 100 | –
25 | C#CCN(C(=O)CCSC)c1cn(-c2cccnc2)nc1Cl [Compound 607] | 80 to 100 | 80 to 100 | –
26 | C#CCN(C(=O)C(SC)C(=O)CSC)c1cn(-c2cccnc2)nc1Cl (stereo not drawn) [Compound 622] | 80 to 100 | 80 to 100 | –
27 | CC(C)(C)OC(=O)Nc1cn(-c2cncc(F)c2)nc1C1CC1 [Compound 434, tert-butyl (3-cyclopropyl-1-(5-fluoropyridin-3-yl)-1H-pyrazol-4-yl)carbamate] | – | – | 156.5 to 158
28 | C#CCN(C(=O)CCSC)c1cn(-c2cccnc2)nc1C [Compound 598] | 80 to 100 | 0 to 80 | –
29 | C#CCN(C(=O)C[S+](C)[O-])c1cn(-c2cccnc2)nc1Cl (stereo not drawn) [Compound 620] | 80 to 100 | 80 to 100 | –
30 | C#CCN(C(=O)C(C)CSC)c1cn(-c2cncc(F)c2)nc1C (stereo not drawn) [Compound 602] | 80 to 100 | 80 to 100 | –
31 | C#CCN(C(=O)C(C)C)c1cn(-c2cccnc2)nc1Cl [Compound 610] | 80 to 100 | 80 to 100 | 98 to 99
32 | C#CCN(C(=O)CC(SC)C1CC1)c1cn(-c2cccnc2)nc1Cl (stereo not drawn) [Compound 619] | 80 to 100 | 80 to 100 | 109 to 112
33 | CC(C)C(=O)Nc1cn(-c2cncc(F)c2)nc1C=O [Compound 560, N-(1-(5-fluoropyridin-3-yl)-3-formyl-1H-pyrazol-4-yl)isobutyramide] | – | – | 140 to 142
34 | C#CCN(C(=O)CCSC)c1cn(-c2cncc(F)c2)nc1C [Compound 605, N-(1-(5-fluoropyridin-3-yl)-3-methyl-1H-pyrazol-4-yl)-3-(methylthio)-N-(prop-2-ynyl)propanamide] | 80 to 100 | 80 to 100 | –
35 | C#CCN(C(=O)CCC(C)(F)F)c1cn(-c2cccnc2)nc1Cl [Compound 614] | 80 to 100 | 80 to 100 | –
